Data set [1] addresses acetylcholinesterase (AChE) (Homo sapiens, UniProt P22303). Briefly: Ellman spectrophotometric assay, Lineweaver-Burk kinetics. The format is biochemical. A general note: DTNB colorimetry detects thiols as they appear.
Substrate in data set [2]: CC(=O)SCC[N+](C)(C)C
Nature of the data set: Ellman assay, Km from Lineweaver-Burk plot without inhibitor. In kind it is biochemical, Homo sapiens.

As a reminder, the IC50 is the concentration needed to halve the response being measured. A higher IC50 goes with weaker potency in that assay. What is called Km is the concentration of substrate that gives half-maximal velocity. What is called Vmax is the top rate of the reaction or transport when substrate is in excess.

In turn, `CCC12C(=O)C(CC)(C(c3ccccc3)=C1c1ccccc1)C1C(=O)NC(=O)C12` (stereo not shown) [I, diethyl (I) succinimide derivative] showed an IC50 in data set [1] of 31 ± 3 µM. `CC12C(=O)C(C)(C(c3ccccc3)=C1c1ccccc1)C1C(=O)NC(=O)C12` (stereo not shown) [II, dimethyl (II) succinimide derivative] registered an IC50 in data set [1] of 29 ± 2 µM.

B1: acetylcholinesterase (AChE) (Homo sapiens) (protein)
chain: EGREDAELLVTVRGGRLRGIRLKTPGGPVSAFLGIPFAEPPMGPRRFLPPEPKQPWSGVVDATTFQSVCYQYVDTLYPGFEGTEMWNPNRELSEDCLYLNVWTPYPRPTSPTPVLVWIYGGGFYSGASSLDVYDGRFLVQAERTVLVSMNYRVGAFGFLALPGSREAPGNVGLLDQRLALQWVQENVAAFGGDPTSVTLFGESAGAASVGMHLLSPPSRGLFHRAVLQSGAPNGPWATVGMGEARRRATQLAHLVGCPPGGTGGNDTELVACLRTRPAQVLVNHEWHVLPQESVFRFSFVPVVDGDFLSDTPEALINAGDFHGLQVLVGVVKDEGSYFLVYGAPGFSKDNESLISRAEFLAGVRVGVPQVSDLAAEAVVLHYTDWLHPEDPARLREALSDVVGDHNVVCPVAQLAGRLAAQGARVYAYVFEHRASTLSWPLWMGVPHGYEIEFIFGIPLDPSRNYTAEEKIFAQRLMRYWANFARTGDPNEPRDPKAPQWPPYTAGAQQYVSLDLRPLEVRRGLRAQACAFWNRFLPKLLSATDTLDEAERQWKAEFHRWSSYMVHWKNQFDHYSKQDRCSDL
As for B1, in data set [2], the Km stood at 960 µM and the Vmax is 630 µM/min.

The values are drawn from PMC11202142, “Succinimide Derivatives as Acetylcholinesterase Inhibitors—In Silico and In Vitro Studies” (Current Issues in Molecular Biology, 2024).
